Test results: PMC12030165, “Bioactivity of Synthesized Trifluoromethyl Thioxanthone Analogues” (Pharmaceuticals, 2025)

Experiments:
Format in all cases: biochemical
[1] = biological target: T1, porcine pancreatic α-amylase (Sus scrofa, UniProt P00690); experiment: α-Amylase inhibition assay (DNSA)
T1 construct: purchased MP Biochemicals (Illkirch, France)
T1 sequence (P00690 16-511): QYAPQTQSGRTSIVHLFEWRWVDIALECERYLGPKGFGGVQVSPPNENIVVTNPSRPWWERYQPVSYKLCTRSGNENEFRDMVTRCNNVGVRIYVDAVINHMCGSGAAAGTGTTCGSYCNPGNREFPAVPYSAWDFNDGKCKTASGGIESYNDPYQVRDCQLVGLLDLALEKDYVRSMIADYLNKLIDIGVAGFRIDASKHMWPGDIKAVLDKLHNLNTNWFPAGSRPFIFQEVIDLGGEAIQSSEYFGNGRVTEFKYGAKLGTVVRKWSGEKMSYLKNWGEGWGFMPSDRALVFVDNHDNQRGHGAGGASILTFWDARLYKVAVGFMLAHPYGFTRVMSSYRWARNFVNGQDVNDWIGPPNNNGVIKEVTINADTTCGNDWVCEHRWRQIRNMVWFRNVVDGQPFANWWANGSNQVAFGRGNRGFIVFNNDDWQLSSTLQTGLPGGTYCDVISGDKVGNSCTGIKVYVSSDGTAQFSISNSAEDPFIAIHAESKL
Procedure: Each product was initially dissolved in a few milliliters of 10% DMSO and then further diluted in a buffer solution (0.02 M Na2HPO4/NaH2PO4, 0.006 M NaCl, at pH 6.9) to prepare stock solutions at a concentration of 1000 µg/mL. From these stock solutions, further dilutions were made to obtain concentrations of 20, 50, and 70 µg/mL, using 10% DMSO as a diluent. A porcine pancreatic α-amylase enzyme solution was prepared at 2 units/mL concentration in 10% DMSO. For the working solutions, 0.2 mL of the enzyme solution was mixed with 0.2 mL of each product, and the mixture was incubated for 10 min at 30 °C. Following the incubation, 0.2 mL of a freshly prepared 1% starch aqueous solution was added to each working solution, which was then incubated for an additional 3 min. The reaction was halted by adding 0.2 mL of dinitrosalicylic acid (DNSA) yellow color reagent. Each working solution was diluted with 5 mL of distilled water and boiled for 10 min in a water bath at 90 °C. After cooling the mixture to room temperature, the absorbance was measured at 540 nm. The blank control was prepared similarly but replaced the product fraction with 0.2 mL of the buffer as mentioned above. Acarbose was used as the standard reference and was subjected to the same experimental procedures. The α-amylase inhibitory activity was calculated using the following equation [49]:% of α amylase inhibition = (AB − AE)/AB × 100%

[2] = biological target: T2, COX-1 (Homo sapiens, UniProt P23219); experiment: COX (human) Inhibitor Screening Assay, COX-1
T2 construct: purchased Cayman Chemicals 701230
Procedure: Our synthesized compounds’ COX-1 and COX-2 inhibitory activities were evaluated using the COX (human) Inhibitor Screening Assay Kit supplied by Cayman Chemicals (catalog no. 701230, Ann Arbor, MI, USA). The preparation of reagents and testing procedures were conducted according to the manufacturer’s recommendations. Two concentrations of the inhibitors (10 µM and 50 µM) were dissolved in a minimal amount of dimethyl sulfoxide (DMSO) and incubated with a mixture of COX-1 or COX-2 enzyme and heme in a diluted reaction buffer for 10 min at 37 °C. The reaction was initiated by adding 10 µL of arachidonic acid, followed by a two-minute incubation at 37 °C. The reaction was halted by adding 30 µL of stannous chloride solution to each reaction tube and incubating for 5 min at room temperature. The resulting PGF2α, produced by the COX reactions, was quantified using an enzyme-linked immunosorbent assay (ELISA). The 96-well plate was covered with plastic film and incubated for 18 h at room temperature on an orbital shaker. After incubation, the plate was rinsed five times with a wash buffer. Then, Ellman’s reagent (200 µL) was added, and the plate was incubated for approximately 60–90 min at room temperature until the absorbance of the blank well was in the range of 0.3–0.8 at 405 nm. The plate was read using a Unilab Microplate Reader 6000. The inhibitory percentage was calculated for each concentration tested against the control. The IC50 values were derived from the concentration-inhibition response curve, and the selectivity index (SI) was calculated by dividing the IC50 for COX-2 by the IC50 for COX-1 [52].

[3] = biological target: T3, porcine pancreatic lipase (Sus scrofa, UniProt P00591); experiment: Inhibition assay of pancreatic lipase enzyme (PNPB)
T3 construct: purchased Sigma-Aldrich (Missouri, MO, USA)
T3 sequence (P00591 1-450): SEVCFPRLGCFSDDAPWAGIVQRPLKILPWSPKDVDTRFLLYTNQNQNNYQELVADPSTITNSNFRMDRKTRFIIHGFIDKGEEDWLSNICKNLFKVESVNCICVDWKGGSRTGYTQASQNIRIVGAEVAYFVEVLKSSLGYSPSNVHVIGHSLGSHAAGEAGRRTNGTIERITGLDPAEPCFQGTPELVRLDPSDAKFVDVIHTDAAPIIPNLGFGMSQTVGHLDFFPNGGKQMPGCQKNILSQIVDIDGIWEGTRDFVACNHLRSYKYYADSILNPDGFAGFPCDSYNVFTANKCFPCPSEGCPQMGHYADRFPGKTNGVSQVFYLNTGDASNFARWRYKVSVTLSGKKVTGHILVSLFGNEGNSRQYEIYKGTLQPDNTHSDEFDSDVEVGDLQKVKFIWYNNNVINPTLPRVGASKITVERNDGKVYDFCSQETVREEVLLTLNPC
Procedure: A stock solution of 1 mg/mL (1000 μg/mL) was prepared for each product using 10% DMSO. This stock solution created […] different concentrations at 20, 50, and 70 μg/mL. A fresh stock solution of pancreatic lipase enzyme was prepared immediately before use. […] In the experiment, 0.1 mL of the 1 mg/mL porcine pancreatic lipase solution was added to test tubes containing 0.2 mL of each of the various concentrations of the products. The mixtures were then brought to a final volume of 1 mL by adding a Tris-HCl solution (pH 7.4) and were incubated at 25 °C for 15 min. After the incubation period, 0.1 mL of the PNPB solution was added to each test tube, and the mixtures were incubated again for 30 min at 37 °C. The activity of pancreatic lipase was measured by assessing the hydrolysis of p-nitrophenyl butyrate to p-nitrophenol at a wavelength of 410 nm using a UV-visible spectrophotometer.

T2 sequence (P23219 24-599): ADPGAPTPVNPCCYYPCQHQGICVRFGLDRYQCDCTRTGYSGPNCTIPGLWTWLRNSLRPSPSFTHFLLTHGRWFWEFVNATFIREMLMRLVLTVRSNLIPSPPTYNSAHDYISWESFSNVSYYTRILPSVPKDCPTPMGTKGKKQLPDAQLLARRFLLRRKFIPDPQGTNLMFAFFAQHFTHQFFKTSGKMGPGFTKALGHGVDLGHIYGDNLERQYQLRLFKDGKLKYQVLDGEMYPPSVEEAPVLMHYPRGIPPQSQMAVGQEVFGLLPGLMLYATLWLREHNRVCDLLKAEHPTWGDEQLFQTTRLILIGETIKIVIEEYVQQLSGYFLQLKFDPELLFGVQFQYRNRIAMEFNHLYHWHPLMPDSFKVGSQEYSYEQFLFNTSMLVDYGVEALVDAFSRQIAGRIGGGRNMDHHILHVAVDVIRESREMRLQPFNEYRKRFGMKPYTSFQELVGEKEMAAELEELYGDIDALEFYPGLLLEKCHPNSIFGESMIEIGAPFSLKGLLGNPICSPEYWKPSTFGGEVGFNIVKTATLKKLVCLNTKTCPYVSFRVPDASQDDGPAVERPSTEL

OC1(c2ccccc2)c2ccccc2Sc2ccc(C(F)(F)F)cc21 (stereo not drawn) [Compound 1, 9-phenyl-2-(trifluoromethyl)-9H-thioxanthen-9-ol]
IC50 [1]: 283 µM
IC50 [2]: 0.0402 ± 0.00041 µM
IC50 [3]: 176 µM

OC1(Cc2ccccc2)c2ccccc2Sc2ccc(C(F)(F)F)cc21 (stereo not drawn) [Compound 2, 9-benzyl-2-(trifluoromethyl)-9H-thioxanthen-9-ol]
IC50 [1]: 60.2 ± 0.8 µM
IC50 [2]: 0.014 ± 0.00064 µM
IC50 [3]: 111 ± 7.5 µM

S-(9-benzyl-2-(trifluoromethyl)-9H-thioxanthen-9-yl)-L-cysteine [Compound 3]
IC50 of the α-Amylase inhibition activity [1]: no inhibitory effect
IC50 [2]: 0.0325 ± 0.00053 µM
IC50 [3]: 277 µM
